Target: T1, ENaC (Homo sapiens, UniProt P37088+P51168+P51170)
T1 construct: host or cells: primary human bronchial epithelial cells (HBECs) differentiated at an air-liquid interface
T1 sequence (P37088 1-669): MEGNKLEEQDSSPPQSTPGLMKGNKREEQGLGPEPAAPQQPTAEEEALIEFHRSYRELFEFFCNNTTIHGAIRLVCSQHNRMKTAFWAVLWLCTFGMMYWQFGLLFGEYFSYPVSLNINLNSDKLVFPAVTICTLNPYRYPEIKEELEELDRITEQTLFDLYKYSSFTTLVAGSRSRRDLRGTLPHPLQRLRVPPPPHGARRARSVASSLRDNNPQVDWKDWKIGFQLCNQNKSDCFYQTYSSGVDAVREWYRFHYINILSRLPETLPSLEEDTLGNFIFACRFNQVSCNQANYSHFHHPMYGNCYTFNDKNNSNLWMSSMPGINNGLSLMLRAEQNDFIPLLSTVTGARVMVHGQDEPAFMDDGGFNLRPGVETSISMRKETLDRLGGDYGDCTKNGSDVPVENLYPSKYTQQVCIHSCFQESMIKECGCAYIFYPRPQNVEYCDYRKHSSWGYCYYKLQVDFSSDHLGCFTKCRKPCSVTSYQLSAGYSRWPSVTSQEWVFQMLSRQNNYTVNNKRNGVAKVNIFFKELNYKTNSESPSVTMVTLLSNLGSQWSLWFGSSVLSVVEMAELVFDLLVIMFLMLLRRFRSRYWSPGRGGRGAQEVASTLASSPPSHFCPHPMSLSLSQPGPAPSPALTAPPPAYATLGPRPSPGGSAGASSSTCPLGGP
T1 sequence (P51168 1-640): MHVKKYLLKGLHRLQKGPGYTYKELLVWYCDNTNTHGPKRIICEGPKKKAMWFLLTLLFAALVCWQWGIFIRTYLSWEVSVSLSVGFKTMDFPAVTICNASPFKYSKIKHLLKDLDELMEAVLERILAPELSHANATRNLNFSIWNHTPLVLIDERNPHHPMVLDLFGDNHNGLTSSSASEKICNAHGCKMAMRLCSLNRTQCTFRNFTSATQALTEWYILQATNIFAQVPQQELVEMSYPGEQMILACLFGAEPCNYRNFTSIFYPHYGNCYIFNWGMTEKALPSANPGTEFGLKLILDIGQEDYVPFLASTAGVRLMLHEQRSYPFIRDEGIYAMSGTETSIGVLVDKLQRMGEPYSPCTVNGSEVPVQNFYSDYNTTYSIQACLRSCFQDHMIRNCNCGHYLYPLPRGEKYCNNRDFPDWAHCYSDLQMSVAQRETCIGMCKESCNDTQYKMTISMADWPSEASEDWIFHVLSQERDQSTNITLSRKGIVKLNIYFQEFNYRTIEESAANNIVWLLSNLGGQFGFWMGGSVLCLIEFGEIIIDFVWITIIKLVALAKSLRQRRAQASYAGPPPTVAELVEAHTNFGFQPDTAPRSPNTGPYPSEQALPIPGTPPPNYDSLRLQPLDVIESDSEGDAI
T1 sequence (P51170 1-649): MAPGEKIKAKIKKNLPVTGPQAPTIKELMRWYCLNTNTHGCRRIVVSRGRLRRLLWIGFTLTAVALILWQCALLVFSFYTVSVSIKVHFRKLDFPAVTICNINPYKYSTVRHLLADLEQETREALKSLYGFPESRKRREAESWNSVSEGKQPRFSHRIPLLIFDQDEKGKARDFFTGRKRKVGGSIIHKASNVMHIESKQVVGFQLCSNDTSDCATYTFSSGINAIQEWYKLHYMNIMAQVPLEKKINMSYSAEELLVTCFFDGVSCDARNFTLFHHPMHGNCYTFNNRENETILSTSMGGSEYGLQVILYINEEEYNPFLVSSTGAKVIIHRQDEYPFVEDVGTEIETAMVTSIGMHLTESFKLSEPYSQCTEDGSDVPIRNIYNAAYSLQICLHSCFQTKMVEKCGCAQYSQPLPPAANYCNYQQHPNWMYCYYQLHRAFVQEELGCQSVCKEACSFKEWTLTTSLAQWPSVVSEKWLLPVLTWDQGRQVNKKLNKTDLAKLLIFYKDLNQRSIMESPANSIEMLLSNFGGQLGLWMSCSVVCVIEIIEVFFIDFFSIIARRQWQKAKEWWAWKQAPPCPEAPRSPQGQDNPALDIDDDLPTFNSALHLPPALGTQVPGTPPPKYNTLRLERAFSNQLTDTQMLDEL
Test: Short circuit current assay to determine ENaC blocker potency in human bronchial epithelial cells
Format: cell-based
Conditions: 50% inhibition of total amiloride-sensitive ISC, HBECs, apical addition; read-out: Averages. ENaC Ic50 μm Avg
Protocol: Example 27—Short Circuit Current Assay to Determine ENaC Blocker Potency in Human Bronchial Epithelial Cells
Human bronchial epithelial cells (HBECs) (Lonza, UK) were cultured using a modification of the method described by Coote et al, (2008). Cells were seeded into plastic T-75 flasks and grown in Bronchial Epithelial Cell Growth Medium (BEGM) (Lonza, UK) supplemented with bovine pituitary extract (52 ng/mL), hydrocortisone (0.5 μg/mL), human recombinant Epidermal Growth Factor (0.5 ng/mL), epinephrine (0.5 ng/mL), transferrin (10 ng/mL), insulin (5 ng/mL), retinoic acid (0.1 ng/mL), triiodothyronine (6.5 ng/mL), gentamycin (50 μg/mL) and amphotericin-B (50 ng/mL). Medium was changed every 48 hours until cells were 90% confluent. Cells were then passaged and seeded (8.25×10^5 cells/insert) onto polycarbonate Snapwell™ inserts (Costar, UK) in differentiation media containing 50% DMEM in BGEM with the same supplements as above but without triiodothyronine and a final retinoic acid concentration of 50 nM (all-trans retinoic acid; Sigma-Aldrich, UK). Cells were maintained submerged for the first 7 days in culture after which time they were exposed to an apical air interface for the remainder of the culture period. From the first day of establishment of an ALI, HBEC were fed with a DMEM:HAMS F-12 (1:1) media containing 2% Ultroser G (Pall BioSepra, France) with gentamycin (50 μg/mL) and amphotericin B (50 ng/mL). Cells were used for short-circuit current assay between days 14-21 after the establishment of the ALI. At all stages of culture, cells were maintained at 37′C in 5% CO2 in an air incubator.
Short-Circuit Current (ISC) Measurements
Snapwell inserts were mounted in Costar Vertical Diffusion Chambers (Costar, UK) and were bathed with continuously gassed Ringer solution (5% CO2 in O2; pH 7.4) maintained at 37° C. containing (in mM): 120 NaCl, 25 NaHCO3, 3.3 KH2PO4, 0.8 K2HPO4, 1.2 CaCl2, 1.2 MgCl2 and 10 glucose. The solution osmolarity was always between 280-300 mOsm/kg H2O for all physiological salt solutions used. Cells were voltage clamped to 0 mV (model EVC4000, WPI). Transepithelial resistance (RT) was measured by applying a 2 mV pulse at 30 s intervals and calculating RT by Ohm's law. Data were recorded using a PowerLab workstation (ADInstruments, UK).
ENaC blocker compounds were added to the apical chamber from a 1000-fold stock solution (prepared in DMSO) to achieve a cumulative concentration response in terms of the inhibition of the basal ISC. At the completion of the concentration response, a supra-maximal concentration of amiloride (10 μM) was added. The concentration of test compound that induced a 50% inhibition of the total amiloride-sensitive ISC (IC50) was calculated using GraphPad Prism v6.05.

Structure (SMILES) | IC50 [nM]
CCn1c(CNC(=O)c2nc(Br)cnc2N)[n+](C)c2ccc(F)cc21.O=C[O-] [Example 12, 2-{[(3-amino-6-bromopyrazin-2-yl)formamido]methyl}-1-ethyl-6-fluoro-3-methyl-1H-1,3-benzodiazol-3-ium formate] | 19
CCn1c(CNC(=O)c2nc(Br)cnc2N)[n+](CC)c2ccc(-c3cnn(C4CCN(C(=N)N)CC4)c3)cc21.O=CO.O=C[O-] [Example 22, 2-{[(3-amino-6-bromopyrazin-2-yl)formamido]methyl}-6-[1-(1-carbamimidoylpiperidin-4-yl)-1H-pyrazol-4-yl]-1,3-diethyl-1H-1,3-benzodiazol-3-ium formic acid formate] | 2
CCn1c(CNC(=O)c2nc(Br)cnc2N)[n+](CCO)c2ccc(OC)cc21.O=C[O-] [Example 3, 2-{[(3-amino-6-bromopyrazin-2-yl)formamido]methyl}-1-ethyl-3-(2-hydroxyethyl)-6-methoxy-1H-1,3-benzodiazol-3-ium formate] | 1
CCn1c(CNC(=O)c2nc(SC)cnc2N)[n+](C)c2ccc(OC)cc21.[I-] [Example 9, 2-({[3-amino-6-(methylsulfanyl)pyrazin-2-yl]formamido}methyl)-1-ethyl-6-methoxy-3-methyl-1H-1,3-benzodiazol-3-ium iodide] | 74
CCn1c(CNC(=O)c2nc(Cl)cnc2N)[n+](C)c2ccc(OC)cc21.[I-] [Example 5, 2-{[(3-amino-6-chloropyrazin-2-yl)formamido]methyl}-1-ethyl-6-methoxy-3-methyl-1H-1,3-benzodiazol-3-ium iodide] | 2
CCn1c(CNC(=O)c2nc(C)cnc2N)[n+](C)c2ccc(OC)cc21.[I-] [Example 7, 2-{[(3-amino-6-methylpyrazin-2-yl)formamido]methyl}-1-ethyl-6-methoxy-3-methyl-1H-1,3-benzodiazol-3-ium iodide] | 4
CCn1c(CNC(=O)c2nc(Br)cnc2N)[n+](CC)c2ccc(-c3cnn(C4CCN(C(=O)OC(C)(C)C)CC4)c3)cc21.[I-] [Example 20, 2-{[(3-amino-6-bromopyrazin-2-yl)formamido]methyl}-6-(1-{1-[(tert-butoxy)carbonyl]piperidin-4-yl}-1H-pyrazol-4-yl)-1,3-diethyl-1H-1,3-benzodiazol-3-ium iodide] | 1

— patent publication US10759785B2, “Compounds” (ENTERPRISE THERAPEUTICS LIMITED, priority 2016, dated 2020)
